Converted amounts (≈) assume the structure as drawn.
Legend:
Type in all cases: functional
[1] = system: Streptococcus pneumoniae; assay: In vitro antibacterial activity of 5649 strain of Gram positive bacteria Streptococcus pneumoniae
[2] = system: Streptococcus pneumoniae; assay: In vitro antibacterial activity of 5979 strain of Gram positive bacteria Streptococcus pneumoniae
[3] = system: Streptococcus pyogenes; assay: In vitro antibacterial activity of PIU2584 strain of Gram positive bacteria Streptococcus pyogenes
[4] = system: Staphylococcus aureus; assay: In vitro antibacterial activity of A-5278 strain of Gram positive bacteria Staphylococcus aureus
[5] = system: Streptococcus pyogenes; assay: In vitro antibacterial activity of EES61 strain of Gram positive bacteria Streptococcus pyogenes
[6] = system: Streptococcus pyogenes; assay: In vitro antibacterial activity of 930 strain of Gram positive bacteria Streptococcus pyogenes
[7] = system: Streptococcus pneumoniae; assay: In vitro antibacterial activity of ATCC 6303 strain of Gram positive bacteria Streptococcus pneumoniae
[8] = system: Staphylococcus aureus; assay: In vitro antibacterial activity of 6538P strain of Gram positive bacteria Staphylococcus aureus
[9] = system: Staphylococcus aureus; assay: In vitro antibacterial activity of A5177 strain of Gram positive bacteria Staphylococcus aureus
[10] = system: Haemophilus influenzae; assay: In vitro antibacterial activity of DILL strain of Gram negative bacteria Haemophilus influenzae
[11] = system: Staphylococcus aureus; assay: In vivo antibacterial activity of NCTC-10649 strain of Gram positive bacteria Staphylococcus aureus (95% confidence interval)
[12] = system: Streptococcus pneumoniae; assay: In vivo antibacterial activity of ATCC 6303 strain of Gram positive bacteria Streptococcus pneumoniae
[13] = system: Streptococcus pneumoniae; assay: In vivo antibacterial activity of ATCC 6303 strain of Gram positive bacteria Streptococcus pneumoniae (95% confidence interval)
[14] = system: Staphylococcus aureus; assay: In vivo antibacterial activity of NCTC-10649 strain of Gram positive bacteria Staphylococcus aureus

`CC[C@H]1OC(=O)/C(C)=C/[C@H](C)[C@@H](O[C@@H]2O[C@H](C)C[C@H](N(C)C)[C@H]2O)[C@@](C)(OC)C[C@@H](C)C(=O)[C@H](C)[C@H]2N(NCCCc3ccccc3Cl)C(=O)O[C@]12C` gave an MIC [1] of 1 mg/L (≈ 1.31 µM), an MIC [2] of 32 mg/L (≈ 41.9 µM) and an MIC [3] of 1 mg/L (≈ 1.31 µM). The MIC [4] was 50 mg/L (≈ 65.4 µM), the MIC [5] was 0.03 mg/L (≈ 0.0392 µM) and the MIC [6] was 16 mg/L (≈ 20.9 µM). For the same compound, the MIC [7] was 0.125 mg/L (≈ 0.164 µM), the MIC [8] was 0.2 mg/L (≈ 0.262 µM) and the MIC [9] was 0.2 mg/L (≈ 0.262 µM). The MIC [10] was 16 mg/L (≈ 20.9 µM).
For `CC[C@H]1OC(=O)/C(C)=C/[C@H](C)[C@@H](O[C@@H]2O[C@H](C)C[C@H](N(C)C)[C@H]2O)[C@@](C)(OC)C[C@@H](C)C(=O)[C@H](C)[C@H]2N(NC/C=C/c3ccc(NC(C)=O)cc3)C(=O)O[C@]12C`, the MIC [1] was 1 mg/L (≈ 1.27 µM), the MIC [2] was over 64 mg/L and the MIC [3] was 1 mg/L (≈ 1.27 µM). For the same compound, the MIC [4] was over 100 mg/L, the MIC [5] was 0.06 mg/L (≈ 0.0764 µM) and the MIC [6] was over 64 mg/L. For the same compound, the MIC [7] was 0.03 mg/L (≈ 0.0382 µM), the MIC [8] was 0.2 mg/L (≈ 0.255 µM) and the MIC [9] was 0.2 mg/L (≈ 0.255 µM). It also gave an MIC [10] of 4 mg/L (≈ 5.1 µM).
Compound `CC[C@H]1OC(=O)/C(C)=C/[C@H](C)[C@@H](O[C@@H]2O[C@H](C)C[C@H](N(C)C)[C@H]2O)[C@@](C)(OC)C[C@@H](C)C(=O)[C@H](C)[C@H]2N(NCc3cc(O)ccc3O)C(=O)O[C@]12C` has an MIC [1] of 2 mg/L (≈ 2.73 µM), an MIC [2] of 128 mg/L (≈ 174 µM) and an MIC [3] of 4 mg/L (≈ 5.45 µM). The MIC [4] was over 100 mg/L, the MIC [5] was 0.25 mg/L (≈ 0.341 µM) and the MIC [6] was 128 mg/L (≈ 174 µM). It also gave an MIC [7] of 0.25 mg/L (≈ 0.341 µM), an MIC [8] of 3.1 mg/L (≈ 4.22 µM) and an MIC [9] of 3.1 mg/L (≈ 4.22 µM). The MIC [10] was 32 mg/L (≈ 43.6 µM).
Compound `CC[C@H]1OC(=O)/C(C)=C/[C@H](C)[C@@H](O[C@@H]2O[C@H](C)C[C@H](N(C)C)[C@H]2O)[C@@](C)(OC)C[C@@H](C)C(=O)[C@H](C)[C@H]2N(NC/C=C/c3ccccc3)C(=O)O[C@]12C` has an MIC [1] of 1 mg/L (≈ 1.37 µM), an MIC [2] of 32 mg/L (≈ 44 µM) and an MIC [3] of 0.5 mg/L (≈ 0.687 µM). For the same compound, the MIC [4] was 100 mg/L (≈ 137 µM), the MIC [5] was 0.06 mg/L (≈ 0.0824 µM) and the MIC [6] was 32 mg/L (≈ 44 µM). For the same compound, the MIC [7] was 0.03 mg/L (≈ 0.0412 µM), the MIC [8] was 0.02 mg/L (≈ 0.0275 µM) and the MIC [9] was 0.1 mg/L (≈ 0.137 µM). The MIC [10] was 8 mg/L (≈ 11 µM).
In the case of `CC[C@H]1OC(=O)/C(C)=C/[C@H](C)[C@@H](O[C@@H]2O[C@H](C)C[C@H](N(C)C)[C@H]2O)[C@@](C)(OC)C[C@@H](C)C(=O)[C@H](C)[C@H]2N(NCc3ccc(O)cc3)C(=O)O[C@]12C`, the MIC [1] is reported as 1 mg/L (≈ 1.39 µM), the MIC [2] is reported as over 128 mg/L and the MIC [3] is reported as 1 mg/L (≈ 1.39 µM). The MIC [4] was over 100 mg/L, the MIC [5] was 0.03 mg/L (≈ 0.0418 µM) and the MIC [6] was over 128 mg/L. It also gave an MIC [7] of 0.03 mg/L (≈ 0.0418 µM), an MIC [8] of 0.2 mg/L (≈ 0.279 µM) and an MIC [9] of 0.2 mg/L (≈ 0.279 µM). The MIC [10] was 4 mg/L (≈ 5.57 µM).
For `CC[C@H]1OC(=O)/C(C)=C/[C@H](C)[C@@H](O[C@@H]2O[C@H](C)C[C@H](N(C)C)[C@H]2O)[C@@](C)(OC)C[C@@H](C)C(=O)[C@H](C)[C@H]2N(NCCCc3ccc(NC(C)=O)cc3)C(=O)O[C@]12C`, the MIC [1] was 2 mg/L (≈ 2.54 µM), the MIC [2] was over 128 mg/L and the MIC [3] was 2 mg/L (≈ 2.54 µM). For the same compound, the MIC [4] was over 100 mg/L, the MIC [5] was 0.06 mg/L (≈ 0.0762 µM) and the MIC [6] was over 128 mg/L. The MIC [7] was 0.06 mg/L (≈ 0.0762 µM), the MIC [8] was 0.39 mg/L (≈ 0.496 µM) and the MIC [9] was 0.39 mg/L (≈ 0.496 µM). The MIC [10] was 8 mg/L (≈ 10.2 µM).
For `CC[C@H]1OC(=O)/C(C)=C/[C@H](C)[C@@H](O[C@@H]2O[C@H](C)C[C@H](N(C)C)[C@H]2O)[C@@](C)(OC)C[C@@H](C)C(=O)[C@H](C)[C@H]2N(NC/C=C/c3cccc4ccccc34)C(=O)O[C@]12C`, the MIC [1] was 1 mg/L (≈ 1.29 µM), the MIC [2] was 16 mg/L (≈ 20.6 µM) and the MIC [3] was 1 mg/L (≈ 1.29 µM). For the same compound, the MIC [4] was 25 mg/L (≈ 32.1 µM), the MIC [5] was 0.125 mg/L (≈ 0.161 µM) and the MIC [6] was 8 mg/L (≈ 10.3 µM). The MIC [7] was 0.125 mg/L (≈ 0.161 µM), the MIC [8] was 0.39 mg/L (≈ 0.501 µM) and the MIC [9] was 0.39 mg/L (≈ 0.501 µM). The MIC [10] was 16 mg/L (≈ 20.6 µM).
Work on `CC[C@H]1OC(=O)/C(C)=C/[C@H](C)[C@@H](O[C@@H]2O[C@H](C)C[C@H](N(C)C)[C@H]2O)[C@@](C)(OC)C[C@@H](C)C(=O)[C@H](C)[C@H]2N(NCc3ccc(NC(C)=O)cc3)C(=O)O[C@]12C` yielded an MIC [1] of 1 mg/L (≈ 1.32 µM), an MIC [2] of over 64 mg/L and an MIC [3] of 2 mg/L (≈ 2.64 µM). It also gave an MIC [4] of over 100 mg/L, an MIC [5] of 0.03 mg/L (≈ 0.0395 µM) and an MIC [6] of over 64 mg/L. For the same compound, the MIC [7] was 0.125 mg/L (≈ 0.165 µM), the MIC [8] was 0.78 mg/L (≈ 1.03 µM) and the MIC [9] was 0.78 mg/L (≈ 1.03 µM). For the same compound, the MIC [10] was 4 mg/L (≈ 5.27 µM).
`CC[C@H]1OC(=O)[C@H](C)[C@@H](O[C@H]2C[C@@](C)(OC)[C@@H](O)[C@H](C)O2)[C@H](C)[C@@H](O[C@@H]2O[C@H](C)C[C@H](N(C)C)[C@H]2O)[C@](C)(OC)C[C@@H](C)C(=O)[C@H](C)[C@@H](O)[C@]1(C)O` [CLARITHROMYCIN] gave an ED50 [11] of 22.4 mg/kg/day, an MIC [12] of 0.03 mg/L (≈ 0.0401 µM) and an ED50 [13] of 27.2 mg/kg/day. It also gave an MIC [14] of 0.39 mg/L (≈ 0.521 µM).
`CC[C@H]1OC(=O)[C@H](C)[C@@H](O[C@H]2C[C@@](C)(OC)[C@@H](O)[C@H](C)O2)[C@H](C)[C@@H](O[C@@H]2O[C@H](C)C[C@H](N(C)C)[C@H]2O)[C@](C)(O)C[C@@H](C)C(=O)[C@H](C)[C@@H](O)[C@]1(C)O` [ERYTHROMYCIN] gave an MIC [1] of 16 mg/L (≈ 21.8 µM), an MIC [2] of over 128 mg/L and an MIC [3] of 32 mg/L (≈ 43.6 µM). It also gave an MIC [4] of over 100 mg/L, an MIC [5] of 0.03 mg/L (≈ 0.0409 µM) and an MIC [6] of over 128 mg/L. For the same compound, the MIC [7] was 0.06 mg/L (≈ 0.0818 µM), the MIC [8] was 0.2 mg/L (≈ 0.273 µM) and the MIC [9] was 3.1 mg/L (≈ 4.22 µM). It also gave an MIC [10] of 4 mg/L (≈ 5.45 µM).
